Results reported in PMC3914206.

What was measured:
Assay type in all cases: binding
Conditions in all cases: Compound Concentration 10 µM
[1] = biological target: T1, panel of 442 kinases (Homo sapiens, UniProt P54753)
T1 construct: purchased KINOMEscan
T1 sequence (P54753 34-998): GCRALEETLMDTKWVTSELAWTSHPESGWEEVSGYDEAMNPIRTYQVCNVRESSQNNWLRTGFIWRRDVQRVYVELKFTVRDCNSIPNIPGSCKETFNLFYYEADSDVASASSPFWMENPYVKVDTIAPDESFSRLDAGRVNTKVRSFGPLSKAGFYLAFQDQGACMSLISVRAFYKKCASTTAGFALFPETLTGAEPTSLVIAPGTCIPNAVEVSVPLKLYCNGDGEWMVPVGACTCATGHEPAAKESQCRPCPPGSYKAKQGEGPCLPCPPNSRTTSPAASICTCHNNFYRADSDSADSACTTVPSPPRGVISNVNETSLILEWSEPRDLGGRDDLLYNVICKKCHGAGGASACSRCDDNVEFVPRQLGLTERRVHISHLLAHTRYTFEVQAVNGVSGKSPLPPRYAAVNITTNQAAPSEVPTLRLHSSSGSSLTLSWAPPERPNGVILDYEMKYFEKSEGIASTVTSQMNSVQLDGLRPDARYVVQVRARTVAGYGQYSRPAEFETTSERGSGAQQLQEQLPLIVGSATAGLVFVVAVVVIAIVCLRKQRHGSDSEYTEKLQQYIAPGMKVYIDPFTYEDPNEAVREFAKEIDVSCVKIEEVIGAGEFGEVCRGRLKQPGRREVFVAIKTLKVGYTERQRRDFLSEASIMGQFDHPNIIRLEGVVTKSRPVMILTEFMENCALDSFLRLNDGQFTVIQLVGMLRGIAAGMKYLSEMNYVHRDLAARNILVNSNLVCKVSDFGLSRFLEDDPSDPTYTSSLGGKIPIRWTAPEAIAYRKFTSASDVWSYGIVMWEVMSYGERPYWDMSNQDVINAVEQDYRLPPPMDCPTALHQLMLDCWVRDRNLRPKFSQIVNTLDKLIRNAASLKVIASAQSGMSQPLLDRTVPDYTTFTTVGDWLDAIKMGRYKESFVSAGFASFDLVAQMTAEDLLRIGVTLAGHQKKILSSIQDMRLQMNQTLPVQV
Source text: (§1) We assessed the selectivity of members of this scaffold using the KINOMEscan methodology across a near comprehensive panel of 442 kinases [[18,27]].

[2] = biological target: T2, panel of 442 kinases (Homo sapiens, UniProt P00533, DEL752-759)
T2 construct: purchased KINOMEscan
T2 sequence (P00533 with tags, fused parts or gaps DEL752-759): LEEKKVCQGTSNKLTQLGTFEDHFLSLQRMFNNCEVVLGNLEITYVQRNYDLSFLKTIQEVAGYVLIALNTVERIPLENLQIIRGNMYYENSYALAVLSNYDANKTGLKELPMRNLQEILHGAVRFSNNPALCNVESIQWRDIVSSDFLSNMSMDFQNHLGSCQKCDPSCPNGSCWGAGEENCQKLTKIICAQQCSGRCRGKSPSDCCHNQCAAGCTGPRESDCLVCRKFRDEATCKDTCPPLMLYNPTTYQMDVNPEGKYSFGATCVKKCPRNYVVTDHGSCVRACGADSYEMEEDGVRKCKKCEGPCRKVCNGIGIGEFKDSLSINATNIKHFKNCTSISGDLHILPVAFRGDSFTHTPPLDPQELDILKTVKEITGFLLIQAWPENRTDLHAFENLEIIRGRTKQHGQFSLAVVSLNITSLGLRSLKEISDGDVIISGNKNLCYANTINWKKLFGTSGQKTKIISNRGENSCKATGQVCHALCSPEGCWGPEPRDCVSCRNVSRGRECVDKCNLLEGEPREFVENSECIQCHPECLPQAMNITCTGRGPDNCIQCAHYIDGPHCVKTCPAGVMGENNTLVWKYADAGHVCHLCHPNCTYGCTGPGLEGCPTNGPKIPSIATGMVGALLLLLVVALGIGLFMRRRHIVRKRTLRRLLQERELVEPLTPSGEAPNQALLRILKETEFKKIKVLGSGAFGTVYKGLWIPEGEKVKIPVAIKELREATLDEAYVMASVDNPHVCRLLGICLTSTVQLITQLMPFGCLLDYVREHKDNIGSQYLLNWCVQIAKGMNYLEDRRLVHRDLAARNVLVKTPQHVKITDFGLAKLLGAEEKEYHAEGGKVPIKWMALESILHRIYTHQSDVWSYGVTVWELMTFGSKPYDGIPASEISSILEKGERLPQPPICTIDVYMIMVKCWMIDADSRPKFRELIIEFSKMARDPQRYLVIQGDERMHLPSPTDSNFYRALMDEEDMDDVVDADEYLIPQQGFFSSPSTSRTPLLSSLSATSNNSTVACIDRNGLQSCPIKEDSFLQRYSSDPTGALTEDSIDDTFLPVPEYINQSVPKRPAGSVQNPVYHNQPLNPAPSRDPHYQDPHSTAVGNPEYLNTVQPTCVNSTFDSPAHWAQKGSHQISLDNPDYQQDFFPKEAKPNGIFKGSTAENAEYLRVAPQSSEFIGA
Source text: as §1

[3] = biological target: T3, panel of 442 kinases (Homo sapiens, UniProt Q00537)
T3 construct: purchased KINOMEscan
T3 sequence (Q00537 whole entry): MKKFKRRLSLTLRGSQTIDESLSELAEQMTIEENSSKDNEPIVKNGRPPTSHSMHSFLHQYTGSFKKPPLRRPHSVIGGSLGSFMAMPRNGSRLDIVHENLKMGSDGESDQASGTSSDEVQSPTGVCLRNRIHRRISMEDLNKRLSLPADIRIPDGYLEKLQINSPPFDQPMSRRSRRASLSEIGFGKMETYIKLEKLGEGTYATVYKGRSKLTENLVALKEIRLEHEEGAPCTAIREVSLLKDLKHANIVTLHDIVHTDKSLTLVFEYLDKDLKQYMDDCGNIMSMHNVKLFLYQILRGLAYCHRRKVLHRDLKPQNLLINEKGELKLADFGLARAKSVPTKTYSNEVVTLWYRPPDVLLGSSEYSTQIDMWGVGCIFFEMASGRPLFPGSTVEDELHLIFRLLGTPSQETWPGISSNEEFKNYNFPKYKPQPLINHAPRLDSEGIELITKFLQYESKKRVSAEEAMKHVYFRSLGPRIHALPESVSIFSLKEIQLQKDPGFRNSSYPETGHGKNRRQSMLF
Source text: as §1

Structure (SMILES) | KINOMEscan: EPHB3 [1] | KINOMEscan: EGFR(S752-I759del) [2] | KINOMEscan: PCTK2 [3]
COc1cc(C(=O)N2CCC(N3CCN(C)CC3)CC2)ccc1Nc1ncc2c(n1)N(C1CCCC1)c1ccccc1C(=O)N2C [Compound 25, 11-cyclopentyl-2-((2-methoxy-4-(4-(4-methylpiperazin-1-yl)piperidine-1-carbonyl)phenyl)amino)-5-methyl-5H-benzo[e]pyrimido[5,4-b][1,4]diazepin-6(11H)-one] | 96 | 80 | 80
COc1cc(C(=O)N2CCC(N3CCN(C)CC3)CC2)ccc1Nc1ncc2c(n1)N1CCc3cccc(c31)C(=O)N2C [Compound 24] | – | 80 | 95
COc1cc(C(=O)N2CCC(N3CCN(C)CC3)CC2)ccc1Nc1ncc2c(n1)N(C)c1ccccc1C(=O)N2C [15 (LRRK2-IN-1)] | 100 | 99 | 83
CCOc1cc(C(=O)N2CCC(N3CCN(C)CC3)CC2)ccc1Nc1ncc2c(n1)N(C1CCCC1)c1ccccc1C(=O)N2C [Compound 26] | 100 | 86 | 100
